Numbers after ± are expanded uncertainties.
Conditions: for surface tension liquid-gas: Maximal bubble pressure; for mass density / electrical conductivity / viscosity: 101.33 kPa, Liquid; for mass density: Buoyancy - hydrostatic balance; for electrical conductivity: MP522 conductivity instrument; for viscosity: Capillary tube (Ostwald / Ubbelohde) method

CCCCNC(=O)C[n+]1ccn(CC)c1.O=S(=O)([N-]S(=O)(=O)C(F)(F)F)C(F)(F)F
Conditions	electrical conductivity [S/m]	mass density [kg/m3]	surface tension liquid-gas [mN/m]	viscosity [mPa·s]
283.15 K	0.00606 ± 0.00014	1431 ± 0.6	32.7 ± 0.3	–
288.15 K	0.00985 ± 0.00022	1427 ± 0.6	32.4 ± 0.3	–
293.15 K	0.0153 ± 0.00033	1422.7 ± 0.6	32.2 ± 0.3	–
298.15 K	0.0233 ± 0.0005	1418 ± 0.6	31.8 ± 0.3	777.5 ± 38
303.15 K	0.0332 ± 0.0007	1413.5 ± 0.5	31.6 ± 0.3	517.3 ± 23
308.15 K	0.0467 ± 0.001	1409 ± 0.5	31 ± 0.3	359 ± 14
313.15 K	0.0639 ± 0.0013	1404.4 ± 0.5	30.8 ± 0.3	255.2 ± 9
318.15 K	0.0854 ± 0.0018	1399.7 ± 0.5	30.5 ± 0.3	187.9 ± 5.9
323.15 K	0.111 ± 0.0023	1395.4 ± 0.5	30.3 ± 0.3	138.9 ± 4
328.15 K	0.141 ± 0.0029	1391 ± 0.5	29.8 ± 0.3	106 ± 2.8
333.15 K	0.177 ± 0.0036	1386.7 ± 0.5	29.4 ± 0.3	82.1 ± 2
338.15 K	0.219 ± 0.004	1382.3 ± 0.5	29 ± 0.3	64.4 ± 1.5
343.15 K	–	–	–	53.3 ± 1.2
348.15 K	–	–	–	43.5 ± 1
353.15 K	–	–	–	35.8 ± 0.8
358.15 K	–	–	–	30 ± 0.7
363.15 K	–	–	–	25.3 ± 0.6

Reference: the NIST ThermoML archive (doi:10.1021/je301001g)
